Measured values from patent US9011853B2, “B7-H4 fusion proteins and methods of use thereof” (Amplimmune, Inc., priority 2009, dated 2015).

Assays:
[1] = tested on: CD4^+CD62L^+ naïve T cells; test: In vitro induction of iTreg cells, FACS for FoxP3/CD25; format: cell-based, mouse; settings: SJL naïve T cells, 10 ng/mL TGF-β and 50 U/mL IL-2; 0, 1, 5 or 10 μg/mL (control IgG 10 μg/ml)
Experimental: CD4^+CD62L^+ naïve T cells were first labeled with CFSE (5 μM) for 10 min at room temperature. The dye was quenched by the addition of 0.5 volumes of ice-cold fetal calf serum. The cells were incubated on ice for 5 min followed by centrifugation to collect the cell pellet. The cells were washed 2 more times in HL-1 culture media. The cells were then cultured in the presence of TGF-β (10 ng/mL) and IL-2 (10, 50, 100 U/mL) for 3 days before intracellular staining with anti-FoxP3 APC. FACS analysis was conducted to detect the FoxP3^+, in vitro expanded iTreg cells.
Therefore, it was next examined if B7-H4-Ig treatment of naïve CD4^+CD62L^+ T cells in the presence of inducible Treg (iTreg) cell-promoting conditions would results in an increase in the numbers of CD4^+CD25^+FoxP3^+ iTreg cells. First the in vitro iTreg induction culture conditions were optimized to allow for experimental conditions to assess what additional effect, if any, B7-H4-Ig has on iTreg induction. CD4^+ T cells were isolated from female SJL mice. Purified mouse CD4^+CD62L^+ T cells were first labeled with CSFE and induced to iTreg cells in the presence of TGF-β (10 ng/mL) and IL-2 at concentrations of 0, 50 or 100 U/mL. FACS analysis was performed 3 days later to detect FoxP3 expression and CFSE content. A FoxP3 positive and CFSE diluted cell population was detected when using 100 U/mL of IL-2 for iTreg differentiation. […]

[2] = tested on: CD4^+CD62L^+ naïve T cells; test: In vitro Th17 polarization: proliferation and cytokine production; format: cell-based, mouse; settings: 0, 0.1, 1 or 10 μg/mL in solution
Experimental: Mouse splenocytes were first removed isolated from DO11.10 mice, which express an MHC class II restricted T cell receptor specific for OVA323-339. Mouse CD4^+ T cells were purified using a Miltenyi CD4^+ T cell negative isolation kit (Cat#130-090-860). Naïve CD4^+ T cells were further purified using the Miltenyi anti-CD62L positive selection magnetic beads (cat#130-049-701).
CD4^+ CD62L^+ naïve T cells with or without CD25^+ T cells were cultured in serum free HL-1 media in the presence of rTGF-β (10 ng/mL), IL-6 (50 ng/mL), IL-23 (4 ng/mL), anti-IL-4 (1 μg/mL), anti-IFN-γ (1 μg/mL) and anti-IL-2 (1 μg/mL). To provide murine B7-H4-Ig in an immobilized format, 96-well flat bottom plates were first coated with murine B7-H4-Ig, 100 μl per well at 1 μg/mL, and incubated at 37° C. for 2 hours. […] For non-specific antigen activation, Mouse CD3/CD28 T Cell Expander beads (Dynabeads®; Invitrogen, Cat#11452D) was added into each well, at a 1:1 cell to bead ratio. […]
[^3H]-Thymidine (1 μCi/well) was added into each well 24 hr post co-incubation. Proliferation was determined by uptake of [^3H]-thymidine detected at 48 hr post [^3H]-thymidine addition using a Topcount Microplate Scintillation Counter (Packard Instruments, Meridan, Conn.). Results are expressed as the mean of triplicate cultures±SEM. […]

| Substance | percentage of FoxP3+CD25+ iTregs [1] | IL-17 production in Th17 cells ([2]; anti-CD3/CD28 beads (FIG. 28)) | murine Th17 proliferation ([2]; anti-CD3/CD28 beads, dose dependent (FIG. 26)) |
| --- | --- | --- | --- |
| B7-H4-Ig: B7-H4 extracellular domain fused to Ig Fc; bare label is the human protein in Example 3, murine protein in Examples 1, 2, 5, 7-11 | increased the percentage of FoxP3^+CD25^+ iTregs in a dose-dependent manner | – | – |
| Human B7-H4-Ig: human B7-H4 extracellular domain fused to hinge, CH2 and CH3 regions of human immunoglobulin Cγ1 chain; representative SEQ ID NOs:114-137 | – | reduced | blocked murine Th1/Th17 proliferation |
